Values joined by “and” are separate entries in the source; they are usually repeats but may differ in a detail not shown here. Equal entries are not always repeated.
Assays:
Assay type in all cases: in vivo, Sprague-Dawley rats
[1] = system: Monoiodine Acetate-Induced Osteoarthritis Pain Model; test: Animex test (spontaneous activity), MIA-induced osteoarthritis rats; details: for Animex test Number of movements: 20 μL i.a. day 8 after MIA, Table 4
Procedure: (§1) Damage to the joint was induced by an individual intraarticular administration, in the paw of a pre-anesthetized rat, of 2 mg of […] (MIA) (volume: 25 μl) according to what described by Guingamp et al., Arthritis Rheum., 40:1670-1679, 1997.
(§2) The experiments described below were performed by injecting into the joint 20 μl of • control (physiological solution); • extract of lyophilized Echinacea purpurea, fraction soluble in hydroalcoholic solution 40-50%, denoted in the figures as 13C1608:2-10-20 mg/ml in PBS (phosphate buffered saline); • extract of lyophilized Centella asiatica, fraction soluble in hydroalcoholic solution 65-75%, denoted in the figures as 14G1862:0.2-1-2 mg/ml in PBS; • bovine synovial fluid: as is; • Hyalgan (Low-molecular weight Hyaluronic acid sodium salt (MW ˜500-730 kDa)):as is; • Jonexa (mixture comprised of a hylastan gel, i.e. a hyaluronic acid crosslinked with divinyl sulfone, and a sodium hyaluronate liquid in the gel-liquid ratio of 80:20): as is; • extract of Centella asiatica fraction soluble in hydroalcoholic solution 65-75%, denoted in the figures as 14G1862: 2 mg/ml in PBS • extract of lyophilized Centella asiatica, fraction soluble in hydroalcoholic solution, denoted in the figures as ABO-AR-2016-391: 2 mg/ml in PBS; • extract of lyophilized Centella asiatica, fraction soluble in hydroalcoholic solution, corresponding to the permeate of fraction ABO-AR-2016-391 after filtration, denoted in the figures as ABO-AR-2016-392:2 mg/ml in PBS; • extract of lyophilized Centella asiatica, fraction soluble in hydroalcoholic solution, corresponding to the retentate of fraction ABO-AR-2016-391 after filtration, denoted in the figures as ABO-AR-2016-393:2 mg/ml in PBS; • Triamcinolone acetonide: 100 μg/[…] • MIX (coextract) Centella+Echinacea lot 17H0246, as described above: 11 mg/ml in water f.p.i.
The mixture of plant extracts was solubilized in accordance with the following protocol: 5.5 g of lyophilized mixture were introduced in a beaker containing 450 g of water and left under stirring 15 min; thereafter, the weight of the liquid was brought to 500 g. For each injection, 30 g of solution were collected and filtered in sequence with 0.45-μ, and 0.22-μm filters. For each filtering, the first 3-4 g of solution were discarded. 20 μL of mixture were injected into the tibiotarsal joint of the rat (using a 26Gx3/8 needle) after having flexed its paw so as to form a 90°-degree angle, at day 8 from articular (joint) damage induction by MIA. […]
The instrument enables to record the spontaneous activity of the animals through use of electromagnetic fields and resonance circuits. […] Variations are recorded by a number counter.

[2] = system: Monoiodine Acetate-Induced Osteoarthritis Pain Model; test: Paw pressure test, MIA-induced osteoarthritis rats
Procedure: as §1, §2
(§3) Injected material: 20 μL of each sample assayed were injected into rat tibiotarsal joint (using a 26Gx3/8 needle) at […] from damage induction by MIA.
(§4) The mixture of plant extracts was solubilized in accordance with the following protocol: 5.5 g of lyophilized mixture were introduced in a beaker containing 450 g of water and left under stirring 15 min; thereafter, the weight of the liquid was brought to 500 g. For each injection, 30 g of solution were collected and filtered in sequence with 0.45-μ, and 0.22-μm filters. For each filtering, the first 3-4 g of solution were discarded. 20 μL of mixture were injected into the tibiotarsal joint of the rat (using a 26Gx3/8 needle) after having flexed its paw so as to form a 90°-degree angle, at day 8 from articular (joint) damage induction by MIA. For the other substances as well 20 μL of solution were injected (Hyalgan 10 mg/ml; triamcinolone acetonide 100 μg/20m1).
An analgesimeter (Ugo Basile, Varese, Italy) was used. A pressure increasing at a constant rate (32 g/s) was applied on the hind paw of the animal by a blunt conical element. The nociceptive threshold of the rat was expressed as that force to which the animal reacts by withdrawing the paw or vocalizing (Leighton et al., 1988).

rat tibiotarsal joint = test: Histology of the tibiotarsal joint, MIA-treated rats
Procedure: as §1, §2, §3
Tissue samples were fixed in 4% formalin in phosphate buffer for 24 hours. Subsequently, samples were decalcified for 28 days in a suitable decalcifying solution (1.6M formic acid, 0.76M sodium formate). At the end of the decalcification, the samples were dehydrated by passages in alcohol with increasing titer, and then included in paraffin. From samples thus processed, 7 μm-thick sections were obtained which were stained by Hematoxylin-Eosin.
The samples were observed under transmitted light optical microscope to assess the morphological parameters subject of analysis: • Inflammatory infiltrate • Synovial hyperplasia • Fibrin deposition in the joint space • Synovial vascularization • Cartilage erosion • Bone erosion • Joint space width
Every morphological parameter was evaluated by a specially provided score (0:absent, 1:scarce, 2:moderate, 3:serious). The evaluation was performed by three separate operators, in blind relative to the origin of the slides. A fourth operator collected data and obtained the final means. For each joint, at least three slides, and for each group at least 6 animals were evaluated. Results are expressed as mean±standard error.

[3] = system: Monoiodine Acetate-Induced Osteoarthritis Pain Model; test: Beam balance test, MIA-induced osteoarthritis rats; details: for Beam balance test score, from normal (0) to pathological (4): 20 μL i.a. day 8 after MIA, Table 3
Procedure: as §1, §2, §4
A 1-meter-long wooden beam having a 1 cm-square section was placed at a height of about 40 cm. […]

[4] = system: Monoiodine Acetate-Induced Osteoarthritis Pain Model; test: Incapacitance test, MIA-induced osteoarthritis rats; details: for Incapacitance test Δ Weight (contralateral - ipsilateral paw): 20 μL i.a. day 8 after MIA, Table 2; for Incapacitance test Δ Weight (paw contralateral - ipsilateral): 20 μL i.a. of fraction (2 mg/ml) or triamcinolone acetonide (100 μg), Table 9
Procedure: as §1, §2, §3, §4
The test is based on the evaluation of the pressure exerted by a rat under conditions of normal posture on each of the hind legs (Hay et al. Neurosci. 78:843-850, 1997). Rats were placed into a small plexiglass box, their hind legs positioned onto two transducers recording the weight the rat distributes on each of the two paws. In case a neuropathy or an inflammation has been induced on one paw, the rat will exert less weight on said paw, compared to the other one.

[5] = coextract study, single i.a. 20 μL, days 14, 30, 60
[6] = Centella fractions study, FIGS. 3 and 4

SMILES: CC1(C)O[C@@H]2C[C@H]3[C@@H]4CCC5=CC(=O)C=C[C@]5(C)[C@@]4(F)[C@@H](O)C[C@]3(C)[C@]2(C(=O)CO)O1 [triamcinolone acetonide, Triamcinolone acetonide]
- Animex test Number of movements ([1]; Day 14): 487.3 ± 57.3^
- Animex test Number of movements ([1]; Day 30): 583.3 ± 45.2^
- Animex test Number of movements ([1]; Day 60): 688.9 ± 54.2^
- spontaneous mobility, Animex test (in words) [1, 5]: effectiveness is lower than that of the plant mixture
- Paw pressure test Weight ([2]; Day 14, contralateral, 20 μL i.a. day 8 after MIA, Table 1): 64.5 ± 0.9 g
- Paw pressure test Weight ([2]; Day 14, contralateral, 20 μL i.a. of fraction (2 mg/ml) or triamcinolone acetonide (100 μg), Table 8): 65.3 ± 1.0 g
- Paw pressure test Weight ([2]; Day 14, ipsilateral, 20 μL i.a. day 8 after MIA, Table 1): 51.9 ± 1.3^^ g
- Paw pressure test Weight ([2]; Day 14, ipsilateral, 20 μL i.a. of fraction (2 mg/ml) or triamcinolone acetonide (100 μg), Table 8): 52.8 ± 1.1 g
- Paw pressure test Weight ([2]; Day 30, contralateral, 20 μL i.a. day 8 after MIA, Table 1): 68.4 ± 1.6 g
- Paw pressure test Weight ([2]; Day 30, contralateral, 20 μL i.a. of fraction (2 mg/ml) or triamcinolone acetonide (100 μg), Table 8): 65.8 ± 0.5 g
- Paw pressure test Weight ([2]; Day 30, ipsilateral, 20 μL i.a. day 8 after MIA, Table 1): 57.4 ± 0.4^ g
- Paw pressure test Weight ([2]; Day 30, ipsilateral, 20 μL i.a. of fraction (2 mg/ml) or triamcinolone acetonide (100 μg), Table 8): 56.7±2.5 g and 56.7 ± 2.5^^ g
- Paw pressure test Weight ([2]; Day 60, contralateral, 20 μL i.a. day 8 after MIA, Table 1): 64.9 ± 2.1 g
- Paw pressure test Weight ([2]; Day 60, contralateral, 20 μL i.a. of fraction (2 mg/ml) or triamcinolone acetonide (100 μg), Table 8): 66.4 ± 0.7 g
- Paw pressure test Weight ([2]; Day 60, ipsilateral, 20 μL i.a. day 8 after MIA, Table 1): 63.0 ± 1.5^ g
- Paw pressure test Weight ([2]; Day 60, ipsilateral, 20 μL i.a. of fraction (2 mg/ml) or triamcinolone acetonide (100 μg), Table 8): 61.3 ± 1.6 g
- antiperalgesic effect, Paw pressure test (in words) [2, 5]: significantly reduces the articular pain reaction at all timings
- cartilage and bone tissue erosion (histology, in words) (rat tibiotarsal joint; [6]): significant effectiveness
- inflammatory infiltrate (histology, in words) (rat tibiotarsal joint; [6]): significant effectiveness
- joint space reduction (histology, in words) (rat tibiotarsal joint; [6]): reduced effectiveness to 15- and 30-day timings and a more marked effectiveness after 60 days
- morphological parameters overall (histology, in words) (rat tibiotarsal joint; [6]): only partially reduces the damaging effects of MIA
- other parameters: synovial hyperplasia, fibrin deposition, synovial vascularization (histology, in words) (rat tibiotarsal joint; [6]): reduced effectiveness to 15- and 30-day timings and a more marked effectiveness after 60 days
- articular space width (histology, in words) (rat tibiotarsal joint; coextract study, FIG. 18-19): Evident effects
- erosion of cartilage and subchondral bone (histology, in words) (rat tibiotarsal joint; coextract study, FIG. 18-19): analogous result
- fibrin deposition in the articular space (histology, in words) (rat tibiotarsal joint; coextract study, FIG. 18-19): More moderate effects
- inflammatory infiltrate (histology, in words) (rat tibiotarsal joint; coextract study, FIG. 18-19): capable of eliminating the presence of inflammatory infiltrate at all timings analyzed
- synovial hyperplasia and vascularization (histology, in words) (rat tibiotarsal joint; coextract study, FIG. 18-19): More moderate effects
- Beam balance test score, from normal (0) to pathological (4) ([3]; Day 14): 1.8 ± 0.2^
- Beam balance test score, from normal (0) to pathological (4) ([3]; Day 30): 1.3 ± 0.2
- Beam balance test score, from normal (0) to pathological (4) ([3]; Day 60): 0.8 ± 0.2
- motor abilities, Beam balance test (in words) [3, 5]: statistical significance is reached solely at day 14
- Incapacitance test effect (in words) ([4]; Centella fractions study, fractions 2 mg/ml, triamcinolone acetonide 100 μg): active both at days 14 and 30
- Incapacitance test Δ Weight (contralateral - ipsilateral paw) ([4]; Day 14): 45.7 ± 3.9^^ g
- Incapacitance test Δ Weight (paw contralateral - ipsilateral) ([4]; Day 14): 28.7 ± 3.2^ g
- Incapacitance test Δ Weight (contralateral - ipsilateral paw) ([4]; Day 30): 25.4 ± 4.3^^ g
- Incapacitance test Δ Weight (paw contralateral - ipsilateral) ([4]; Day 30): 15.6 ± 5.4^ g
- Incapacitance test Δ Weight (contralateral - ipsilateral paw) ([4]; Day 60): 20.9 ± 5.4^ g
- Incapacitance test Δ Weight (paw contralateral - ipsilateral) ([4]; Day 60): 5.6 ± 4.4 g
- reduction of MIA-induced postural alteration, Incapacitance test (in words) [4, 5]: reduces, it also in a statistically significant manner, MIA-induced alteration at all timings considered

Reference: patent US11612628B2, “Compositions for the treatment of articular disorders” (Aboca S.p.A. Società Agricola, priority 2017, dated 2023)
